Experimental data: the supplement of paper PMC5908809

Tests used:
DERL-7 (IL-2 2.5 ng/mL) [1] = assay: drug sensitivity score (DSS) (DSS units); higher = more sensitive; extreme values may be limits of the assay; conditions: 72 h
[2] = test system: normal primary NK cells, pool 2 (3 donors) (IL-2 2.5 ng/mL); assay: as above; conditions: 72 h
IMC-1 (IL-2 20 ng/mL) [3] = assay: as above; conditions: 72 h
[4] = test system: normal primary NK cells, pool 1 (3 donors) (IL-2 2.5 ng/mL); assay: as above; conditions: 72 h
[5] = test system: normal primary NK cells, pool 1 (3 donors), resting (IL-2 0 ng/mL); assay: as above; conditions: 72 h
[6] = test system: normal primary NK cells, pool 3 (3 donors) (IL-2 2.5 ng/mL); assay: as above; conditions: 72 h
NKL (IL-2 2.5 ng/mL) [7] = assay: as above; conditions: 72 h
YT (IL-2 2.5 ng/mL) [8] = assay: as above; conditions: 72 h
NK-YS (IL-2 2.5 ng/mL) [9] = assay: as above; conditions: 72 h
SNK-6 (IL-2 2.5 ng/mL) [10] = assay: as above; conditions: 72 h
NK-92 (IL-2 2.5 ng/mL) [11] = assay: as above; conditions: 72 h
KAI3 (IL-2 2.5 ng/mL) [12] = assay: as above; conditions: 72 h
KHYG-1 (IL-2 2.5 ng/mL) [13] = assay: as above; conditions: 72 h
[14] = test system: normal NK cells expanded with K562-aAPC; assay: as above; conditions: 72 h; IL-2 2.5 ng/mL
Description: (§1)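 Drug sensitivity and resistance testing on K562-aAPC-expanded normal NK cells: 5 concentrations (10-fold steps over a 10,000-fold range), 72 h at 37 °C, viability by CellTiter-Glo normalised to DMSO and benzethonium chloride controls; DSS from the fitted curve.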

DERL-7 (IL-2 2.5 ng/mL) [15] = assay: percent inhibition of viability; higher = more inhibition; conditions: 72 h
[16] = test system: normal primary NK cells, pool 2 (3 donors) (IL-2 2.5 ng/mL); assay: as above; conditions: 72 h
IMC-1 (IL-2 20 ng/mL) [17] = assay: as above; conditions: 72 h
[18] = test system: normal primary NK cells, pool 1 (3 donors) (IL-2 2.5 ng/mL); assay: as above; conditions: 72 h
[19] = test system: normal primary NK cells, pool 1 (3 donors), resting (IL-2 0 ng/mL); assay: as above; conditions: 72 h
[20] = test system: normal primary NK cells, pool 3 (3 donors) (IL-2 2.5 ng/mL); assay: as above; conditions: 72 h
NKL (IL-2 2.5 ng/mL) [21] = assay: as above; conditions: 72 h
YT (IL-2 2.5 ng/mL) [22] = assay: as above; conditions: 72 h
NK-YS (IL-2 2.5 ng/mL) [23] = assay: as above; conditions: 72 h
SNK-6 (IL-2 2.5 ng/mL) [24] = assay: as above; conditions: 72 h
NK-92 (IL-2 2.5 ng/mL) [25] = assay: as above; conditions: 72 h
KAI3 (IL-2 2.5 ng/mL) [26] = assay: as above; conditions: 72 h
KHYG-1 (IL-2 2.5 ng/mL) [27] = assay: as above; conditions: 72 h
[28] = test system: normal NK cells expanded with K562-aAPC; assay: as above; conditions: 72 h, IL-2 2.5 ng/mL
Description: as §1

CCC/C=C/C=C/C(=O)O[C@H]1/C(=C/C(=O)OC)C[C@H]2C[C@H]([C@@H](C)O)OC(=O)C[C@H](O)C[C@@H]3C[C@H](OC(C)=O)C(C)(C)[C@](O)(C[C@@H]4C/C(=C/C(=O)OC)C[C@H](/C=C/C(C)(C)[C@]1(O)O2)O4)O3 [Bryostatin 1] (max concentration tested 100 nM)
drug sensitivity score (DERL-7 (IL-2 2.5 ng/mL) [1]): 8.96
drug sensitivity score [2]: 0
drug sensitivity score (IMC-1 (IL-2 20 ng/mL) [3]): 23.9
drug sensitivity score [4]: 0
drug sensitivity score [5]: 0
drug sensitivity score [6]: 0
drug sensitivity score (NKL (IL-2 2.5 ng/mL) [7]): 0
drug sensitivity score (YT (IL-2 2.5 ng/mL) [8]): 0
drug sensitivity score (NK-YS (IL-2 2.5 ng/mL) [9]): 0
drug sensitivity score (SNK-6 (IL-2 2.5 ng/mL) [10]): 14.9
drug sensitivity score (NK-92 (IL-2 2.5 ng/mL) [11]): 31.7
drug sensitivity score (KAI3 (IL-2 2.5 ng/mL) [12]): 0
drug sensitivity score (KHYG-1 (IL-2 2.5 ng/mL) [13]): 35.4
drug sensitivity score [14]: 0
percent inhibition of viability (DERL-7 (IL-2 2.5 ng/mL) [15]; 0.01 nM): -2.14%
percent inhibition of viability (DERL-7 (IL-2 2.5 ng/mL) [15]; 0.1 nM): -19.4%
percent inhibition of viability (DERL-7 (IL-2 2.5 ng/mL) [15]; 1 nM): 24.4%
percent inhibition of viability (DERL-7 (IL-2 2.5 ng/mL) [15]; 10 nM): 20%
percent inhibition of viability (DERL-7 (IL-2 2.5 ng/mL) [15]; 100 nM): 35.2%
percent inhibition of viability ([16]; 0.01 nM): -15.1%
percent inhibition of viability ([16]; 0.1 nM): -25.1%
percent inhibition of viability ([16]; 1 nM): -48.2%
percent inhibition of viability ([16]; 10 nM): -38%
percent inhibition of viability ([16]; 100 nM): -37.6%
percent inhibition of viability (IMC-1 (IL-2 20 ng/mL) [17]; 0.01 nM): -3.95%
percent inhibition of viability (IMC-1 (IL-2 20 ng/mL) [17]; 0.1 nM): 3.27%
percent inhibition of viability (IMC-1 (IL-2 20 ng/mL) [17]; 1 nM): 75.6%
percent inhibition of viability (IMC-1 (IL-2 20 ng/mL) [17]; 10 nM): 68.3%
percent inhibition of viability (IMC-1 (IL-2 20 ng/mL) [17]; 100 nM): 62.7%
percent inhibition of viability ([18]; 0.01 nM): -10.4%
percent inhibition of viability ([18]; 0.1 nM): -18.6%
percent inhibition of viability ([18]; 1 nM): -14.9%
percent inhibition of viability ([18]; 10 nM): -23.1%
percent inhibition of viability ([18]; 100 nM): -10.7%
percent inhibition of viability ([19]; 0.01 nM): -14.3%
percent inhibition of viability ([19]; 0.1 nM): 14.4%
percent inhibition of viability ([19]; 1 nM): -0.07%
percent inhibition of viability ([19]; 10 nM): -6.68%
percent inhibition of viability ([19]; 100 nM): 5.47%
percent inhibition of viability ([20]; 0.01 nM): -5.42%
percent inhibition of viability ([20]; 0.1 nM): -30.1%
percent inhibition of viability ([20]; 1 nM): -40.2%
percent inhibition of viability ([20]; 10 nM): -35%
percent inhibition of viability ([20]; 100 nM): -20.7%
percent inhibition of viability (NKL (IL-2 2.5 ng/mL) [21]; 0.01 nM): -18.8%
percent inhibition of viability (NKL (IL-2 2.5 ng/mL) [21]; 0.1 nM): -58.9%
percent inhibition of viability (NKL (IL-2 2.5 ng/mL) [21]; 1 nM): -74.9%
percent inhibition of viability (NKL (IL-2 2.5 ng/mL) [21]; 10 nM): -67.5%
percent inhibition of viability (NKL (IL-2 2.5 ng/mL) [21]; 100 nM): -81.5%
percent inhibition of viability (YT (IL-2 2.5 ng/mL) [22]; 0.01 nM): 2.73%
percent inhibition of viability (YT (IL-2 2.5 ng/mL) [22]; 0.1 nM): -2.33%
percent inhibition of viability (YT (IL-2 2.5 ng/mL) [22]; 1 nM): -3.22%
percent inhibition of viability (YT (IL-2 2.5 ng/mL) [22]; 10 nM): 1.88%
percent inhibition of viability (YT (IL-2 2.5 ng/mL) [22]; 100 nM): 1.24%
percent inhibition of viability (NK-YS (IL-2 2.5 ng/mL) [23]; 0.01 nM): -5.4%
percent inhibition of viability (NK-YS (IL-2 2.5 ng/mL) [23]; 0.1 nM): -9.97%
percent inhibition of viability (NK-YS (IL-2 2.5 ng/mL) [23]; 1 nM): -7.91%
percent inhibition of viability (NK-YS (IL-2 2.5 ng/mL) [23]; 10 nM): 1.59%
percent inhibition of viability (NK-YS (IL-2 2.5 ng/mL) [23]; 100 nM): -4.21%
percent inhibition of viability (SNK-6 (IL-2 2.5 ng/mL) [24]; 0.01 nM): 13.4%
percent inhibition of viability (SNK-6 (IL-2 2.5 ng/mL) [24]; 0.1 nM): 39.5%
percent inhibition of viability (SNK-6 (IL-2 2.5 ng/mL) [24]; 1 nM): 64.4%
percent inhibition of viability (SNK-6 (IL-2 2.5 ng/mL) [24]; 10 nM): 35.5%
percent inhibition of viability (SNK-6 (IL-2 2.5 ng/mL) [24]; 100 nM): 18%
percent inhibition of viability (NK-92 (IL-2 2.5 ng/mL) [25]; 0.01 nM): -10.7%
percent inhibition of viability (NK-92 (IL-2 2.5 ng/mL) [25]; 0.1 nM): 25.5%
percent inhibition of viability (NK-92 (IL-2 2.5 ng/mL) [25]; 1 nM): 87.5%
percent inhibition of viability (NK-92 (IL-2 2.5 ng/mL) [25]; 10 nM): 103%
percent inhibition of viability (NK-92 (IL-2 2.5 ng/mL) [25]; 100 nM): 95.4%
percent inhibition of viability (KAI3 (IL-2 2.5 ng/mL) [26]; 0.01 nM): 0.24%
percent inhibition of viability (KAI3 (IL-2 2.5 ng/mL) [26]; 0.1 nM): 5.23%
percent inhibition of viability (KAI3 (IL-2 2.5 ng/mL) [26]; 1 nM): 4.64%
percent inhibition of viability (KAI3 (IL-2 2.5 ng/mL) [26]; 10 nM): 21.7%
percent inhibition of viability (KAI3 (IL-2 2.5 ng/mL) [26]; 100 nM): -6.8%
percent inhibition of viability (KHYG-1 (IL-2 2.5 ng/mL) [27]; 0.01 nM): 1.17%
percent inhibition of viability (KHYG-1 (IL-2 2.5 ng/mL) [27]; 0.1 nM): 35.4%
percent inhibition of viability (KHYG-1 (IL-2 2.5 ng/mL) [27]; 1 nM): 102%
percent inhibition of viability (KHYG-1 (IL-2 2.5 ng/mL) [27]; 10 nM): 106%
percent inhibition of viability (KHYG-1 (IL-2 2.5 ng/mL) [27]; 100 nM): 99.2%
percent inhibition of viability ([28]; 0.01 nM): -6.34%
percent inhibition of viability ([28]; 0.1 nM): -41.9%
percent inhibition of viability ([28]; 1 nM): -55.2%
percent inhibition of viability ([28]; 10 nM): -31.9%
percent inhibition of viability ([28]; 100 nM): -30.3%
